The values below come from US11390617B2, “Methods of treating non-Hodgkin lymphoma using 2-(2,6-dioxopiperidin-3-yl)-4-((2-fluoro-4-((3-morpholinoazetidin-1-yl)methyl)benzyl)amino)isoindoline-1,3-dione” (Celgene Corporation, priority 2019, dated 2022).

The test system of assay [1] is RL follicular lymphoma xenograft tumors. As to the kind of experiment: RL (follicular lymphoma) xenograft model, monotherapy. In kind it is in vivo, female SCID mice. To be noted: 5 days on 2 days off for 3 weeks. On the procedure:
Anti-tumor activity of Compound 1 was evaluated as monotherapy (between 1 and 30 mg/kg, qd) in RL (follicular lymphoma) xenograft model.
Xenograft study was conducted with female SCID mice bearing RL follicular lymphoma xenograft tumors. Female SCID mice were inoculated subcutaneously with RL cells in the flank region above the right hind leg. Following inoculation of animals, the tumors were allowed to grow to approximately 200 mm^3 prior to randomization. On day 14 following tumor cell inoculation, the mice bearing RL tumors ranging between 150 and 250 mm^3 were pooled together and randomized into various treatment groups. Compound 1 was formulated in 0.5% Methyl Cellulose, 0.25% Tween 80 and 50 mM Citrate pH 3 in water. Compound 1 at 1, 3, 10 or 30 mg/kg was orally administered once daily with a 5 days on and 2 days off schedule for 3 weeks starting from day 14 after tumor cell inoculation. Tumors were measured twice a week using calipers and tumor volumes were calculated using the formula of W^2×L/2. Statistical analysis was performed using a one-way or 2-way analysis of variance (ANOVA). Synergy calculations were performed using fractional product method.

Assay [2] has as its system WSU-DLCL2 DLBCL xenograft tumors. Nature of the assay: WSU-DLCL2 (DLBCL) xenograft model. The class given is in vivo, female SCID mice. To be noted: 5 days on 2 days off for 3 weeks, single agent. On the procedure:
Female 6- to 8-weeks-old CB17 SCID mice were obtained from Charles River Laboratories. Mice were housed in a barrier facility in micro-isolator cages at 10 animals per cage. Mice were fed with Harlan-Teklad LM-485 Mouse/Rat Sterilizable Diet and autoclaved water ad libitum and maintained on a 12 hours light-dark cycle. Animals were acclimatized to the animal housing facility for a period of 7 days before the beginning of the experiment. All animal studies were performed under protocols approved by Institutional Animal Care and Use Committees.
Suspensions of Compound 1 were pared in aqueous 0.5% Methyl Cellulose, 0.25% Tween 80 and 50 mM Citrate pH 3. The formulations were homogenized using a Teflon pestle and mortar (Potter-Elvehjem tissue grinder). For multiday studies, the compound was freshly formulated every day. Compound 1 and vehicle were administered by oral gavage. Rituximab was diluted in 0.9% saline and administered intraperitoneally.
Tumor cells were injected subcutaneously in the flank region above the right hind legs of female CB17 SCID mice. When the tumor volumes reach to approximately 200 mm^3, mice bearing tumors of 150-300 mm^3 were randomly assigned to receive oral doses of vehicle, Compound 1, rituximab or combination of Compound 1 (5 days on and 2 days off for 3 weeks) and rituximab (twice a week) for the duration of the study. Tumor volumes were determined before the initiation of treatment and were considered as the starting volumes. Tumors were measured twice a week for the duration of the study. The long and short axes of each tumor were measured using a digital caliper in millimeters. The tumor volumes were calculated using the formula: width^2×length/2. The tumor volumes were expressed in cubic millimeters (mm^3).
Xenograft data are expressed as mean±SEM. Statistical analyses were performed using GraphPad Prism. […]
Xenograft study was conducted with female SCID mice bearing WSU-DLCL2 DLBCL xenograft tumors. […] Tumors were measured twice a week using calipers and tumor volumes were calculated using the formula of W^2×L/2. […]

Setting [3] is: 3, 10 and 30 mg/kg oral once daily.

As for `O=C1CC[C@H](N2C(=O)c3cccc(NCc4ccc(CN5CC(N6CCOCC6)C5)cc4F)c3C2=O)C(=O)N1` [Compound 1, (S)-2-(2,6-dioxopiperidin-3-yl)-4-((2-fluoro-4-((3-morpholinoazetidin-1-yl)methyl)benzyl)amino)isoindoline-1,3-dione], the “inhibited RL follicular lymphoma tumor growth” value in assay [1] (1 mg/kg oral once daily) is given as −96.8%. Moreover, in assay [1] (setting [3]), the tumor free animals result is “all the animals became tumor free” and the tumor growth result was “completely inhibited”. In addition, the tumor volume reduction in assay [2] (Compound 1 1 mg/kg oral) worked out at 74%. Besides, in assay [2] (Compound 1 3 mg/kg oral), the tumor volume reduction turned out to be 86%.
